Data: patent US20220062294A1, “PHARMACEUTICAL COMPOSITIONS OF TETRACYCLIC QUINOLONE ANALOGS AND THEIR SALTS” (Senhwa Biosciences, Inc., priority 2020, published 2022)

How the values were obtained:
[1] = system: metastatic, recurrent, locally, advanced, or unresectable solid malignancy; assay: Pharmacokinetic and dose escalation study in patients with solid malignancy (Example 6); format: in vivo, human
Procedure: In pharmacokinetic and dose escalation studies, wadult patients with metastatic, recurrent, locally, advanced, or unresectable solid malignancy (patients with histologically and/or cytologically confirmed solid malignancy), who received prior anti-cancer treatment(s) until disease progression, at 10 different dose levels of Compound I were evaluated. Groups 1-7 were administered Compound I intravenously on days 1 and 8 of a 4-week cycle at 50, 100, 150, 200, 250, 325, and 475 mg/m^2 (solid Compound I reconstituted with 5% glucose in sterile water or similar biologically acceptable IV fluid), respectively. Groups 8-10 were administered intravenously on days 1, 8, and 15 of a 4-week cycle at 325, 475, and 650 mg/m^2, respectively. Each patient received each dose over 1 hour by IV infusion on days described above.
18 Patients were diagnosed with metastatic breast cancer.
12 Patients harbored BRCA1 or BRCA2 mutation. From the same group of 12 patients harboring BRCA1 or BRCA2 mutation, 8 patients had breast cancer (FIG. 2). Of the 8 patients, 6 patients harbored BRCA2 mutation and had breast cancer (FIG. 3). In FIGS. 1-3, each bar represents an individual in a treatment Group as indicated by the Group number corresponding to the treatment Groups.

BRCA1/2 deficient cells = assay: Toxicity against BRCA1/2 deficient cell lines; format: cell-based; conditions: cell lines of different genetic backgrounds (colon, breast and ovary), mouse and human
[2] = system: BRCA2 knockout tumor cells; assay: Xenograft model, BRCA2 knockout vs isogenic wild type tumor cells; format: in vivo; conditions: BRCA2 knockout tumor cells in a xenograft model, compared with isogenic wild type control cells
normal cells = assay: Alamar Blue cell viability assay, overall statement on normal cells; format: cell-based
[3] = system: multiple cancer cell lines; assay: Alamar Blue cell viability assay, overall statement on cancer cell lines; format: cell-based
Procedure: The effect of Compound I on cell viability was assessed by Alamar Blue assay of metabolic activity in various cancer cell lines.

Cc1cnc(CNC(=O)c2c(=O)c3ccc(N4CCCN(C)CC4)nc3n3c2sc2ccccc23)cn1 [Compound I, 2-(4-Methyl-[1,4]diazepan-1-yl)-5-oxo-5H-7-thia-1,11b-diaza-benzo[c]fluorene-6-carboxylic acid (5-methyl-pyrazin-2-ylmethyl)-amide]
response to Compound I treatment ([1]; one patient of Group 10 (650 mg/m^2 IV, days 1, 8, 15 of 4-week cycle) with PALB2 mutation and BRCA2 mutation): partial response (PR) | response to Compound I treatment ([1]; patients with BRCA2 mutation, dose greater than or equal to 150 mg/m^2, IV): tumor shrinkage | toxicity against BRCA1/2 deficient cells (BRCA1/2 deficient cells): specific toxicity | therapeutic index of activity [2]: wide therapeutic index | activity in normal cells compared with cancer cell lines (normal cells): significantly less active | antiproliferative activity [3]: antiproliferation activity
